# PMC5218480 (PLoS ONE, 2017)
# Test system: MV-4-11 cells
# Experiment: Gene expression microarray analysis (Affymetrix PrimeView) and GSEA
# Assay type: cell-based, human
# Parameters: RFU PODN (11730768_x_at) / Fold change /veh PODN (11730768_x_at) / RFU LINC00158 (11744669_a_at) / Fold change /veh LINC00158 (11744669_a_at) / RFU DUSP10 (11751237_a_at) / Fold change /veh DUSP10 (11751237_a_at) / RFU ID3 (11757404_x_at) / Fold change /veh ID3 (11757404_x_at) / RFU PLEKHG5 (11737974_s_at) / Fold change /veh PLEKHG5 (11737974_s_at) / RFU LRRC4B (11730491_at) / Fold change /veh LRRC4B (11730491_at) / RFU GIMAP4 (11747438_a_at) / Fold change /veh GIMAP4 (11747438_a_at) / RFU KRT8 (11758183_x_at) / Fold change /veh KRT8 (11758183_x_at) / RFU CNN1 (11734310_a_at) / Fold change /veh CNN1 (11734310_a_at) / RFU VPS37D (11726825_at) / Fold change /veh VPS37D (11726825_at) / RFU C10orf10 (11716522_x_at) / Fold change /veh C10orf10 (11716522_x_at) / RFU KIR2DL2 /// KIR2DL4 /// KIR2DL5A /// KIR2DL5B /// KIR2DS1 /// KIR2DS2 /// KIR2DS3 /// KIR2DS4 /// KIR3DL3 /// KIR3DL3 /// KIR3DS1 (11738374_at) / Fold change /veh KIR2DL2 /// KIR2DL4 /// KIR2DL5A /// KIR2DL5B /// KIR2DS1 /// KIR2DS2 /// KIR2DS3 /// KIR2DS4 /// KIR3DL3 /// KIR3DL3 /// KIR3DS1 (11738374_at) / RFU C1QL1 (11718748_at) / Fold change /veh C1QL1 (11718748_at) / RFU TMPRSS4 (11747572_a_at) / Fold change /veh TMPRSS4 (11747572_a_at) / RFU HAMP (11756126_x_at) / Fold change /veh HAMP (11756126_x_at) / RFU RNFT2 (11725882_a_at) / Fold change /veh RNFT2 (11725882_a_at) / RFU NR4A2 (11747474_a_at) / Fold change /veh NR4A2 (11747474_a_at) / RFU ABCC12 (11746883_a_at) / Fold change /veh ABCC12 (11746883_a_at) / RFU TMEM136 (11760407_x_at) / Fold change /veh TMEM136 (11760407_x_at) / RFU CLDN22 /// WWC2 (11732394_at) / Fold change /veh CLDN22 /// WWC2 (11732394_at) / RFU HLA-DPB1 (11760878_x_at) / Fold change /veh HLA-DPB1 (11760878_x_at) / RFU SPINT1 (11716480_a_at) / Fold change /veh SPINT1 (11716480_a_at) / RFU GAP43 (11754022_s_at) / Fold change /veh GAP43 (11754022_s_at) / RFU A4GNT (11735810_at) / Fold change /veh A4GNT (11735810_at) / RFU PRB3 (11715151_x_at) / Fold change /veh PRB3 (11715151_x_at) / RFU TUBB4B (11761932_at) / Fold change /veh TUBB4B (11761932_at) / RFU CAPN14 (11732068_a_at) / Fold change /veh CAPN14 (11732068_a_at) / RFU TMCC2 (11721928_a_at) / Fold change /veh TMCC2 (11721928_a_at) / RFU IRGQ (11745062_a_at) / Fold change /veh IRGQ (11745062_a_at) / RFU FAM174B (11720279_a_at) / Fold change /veh FAM174B (11720279_a_at) / RFU TMPRSS4 (11748680_a_at) / Fold change /veh TMPRSS4 (11748680_a_at) / RFU FAM212B (11763350_a_at) / Fold change /veh FAM212B (11763350_a_at) / RFU PLEKHG5 (11743358_a_at) / Fold change /veh PLEKHG5 (11743358_a_at) / RFU ZSCAN30 (11745921_a_at) / Fold change /veh ZSCAN30 (11745921_a_at) / RFU CMKLR1 (11741424_a_at) / Fold change /veh CMKLR1 (11741424_a_at) / RFU LOC101060620 /// MAPK8IP1 (11723275_at) / Fold change /veh LOC101060620 /// MAPK8IP1 (11723275_at) / RFU SPTSSB (11747773_x_at) / Fold change /veh SPTSSB (11747773_x_at) / RFU PRSS12 (11739890_at) / Fold change /veh PRSS12 (11739890_at) / RFU BIN1 (11741810_x_at) / Fold change /veh BIN1 (11741810_x_at) / RFU WNT11 (11732464_a_at) / Fold change /veh WNT11 (11732464_a_at) / RFU C10orf10 (11716521_a_at) / Fold change /veh C10orf10 (11716521_a_at) / RFU C5orf56 (11738089_at) / Fold change /veh C5orf56 (11738089_at) / RFU CYB561 (11721691_x_at) / Fold change /veh CYB561 (11721691_x_at) / RFU ANKRD19P (11752326_a_at) / Fold change /veh ANKRD19P (11752326_a_at) / RFU OR2T12 /// OR2T33 /// OR2T8 (11738714_s_at) / Fold change /veh OR2T12 /// OR2T33 /// OR2T8 (11738714_s_at) / RFU VCAN (11748164_a_at) / Fold change /veh VCAN (11748164_a_at) / RFU JSRP1 (11732532_at) / Fold change /veh JSRP1 (11732532_at) / RFU KRTAP10-11 (11738290_x_at) / Fold change /veh KRTAP10-11 (11738290_x_at) / RFU MYO3A (11730013_a_at) / Fold change /veh MYO3A (11730013_a_at) / RFU EBF3 (11725865_a_at) / Fold change /veh EBF3 (11725865_a_at) / RFU CAMK2N1 (11719241_x_at) / Fold change /veh CAMK2N1 (11719241_x_at) / RFU C5orf56 (11738088_a_at) / Fold change /veh C5orf56 (11738088_a_at) / RFU OLFML3 (11715873_a_at) / Fold change /veh OLFML3 (11715873_a_at) / RFU LOC100653217 /// NTM (11731650_a_at) / Fold change /veh LOC100653217 /// NTM (11731650_a_at) / RFU MAPK11 (11762145_a_at) / Fold change /veh MAPK11 (11762145_a_at) / RFU FIZ1 (11724087_x_at) / Fold change /veh FIZ1 (11724087_x_at) / RFU OASL (11726364_x_at) / Fold change /veh OASL (11726364_x_at) / RFU SOX15 (11748057_x_at) / Fold change /veh SOX15 (11748057_x_at) / RFU CD79A (11719716_a_at) / Fold change /veh CD79A (11719716_a_at) / RFU HIST1H1D (11736915_at) / Fold change /veh HIST1H1D (11736915_at) / RFU CASKIN2 (11723855_a_at) / Fold change /veh CASKIN2 (11723855_a_at) / RFU LOC730098 (11760151_x_at) / Fold change /veh LOC730098 (11760151_x_at) / RFU OR4N2 (11742367_at) / Fold change /veh OR4N2 (11742367_at) / RFU PRRT2 (11749266_a_at) / Fold change /veh PRRT2 (11749266_a_at) / RFU SNX32 (11753110_a_at) / Fold change /veh SNX32 (11753110_a_at) / RFU CDHR5 (11726645_a_at) / Fold change /veh CDHR5 (11726645_a_at) / RFU RCAN1 (11760418_a_at) / Fold change /veh RCAN1 (11760418_a_at) / RFU FAM167A (11723789_a_at) / Fold change /veh FAM167A (11723789_a_at) / RFU FAM26E (11764081_at) / Fold change /veh FAM26E (11764081_at) / RFU ISYNA1 (11749810_s_at) / Fold change /veh ISYNA1 (11749810_s_at) / RFU ACY1 (11761880_at) / Fold change /veh ACY1 (11761880_at) / RFU 11764098_at / Fold change /veh 11764098_at / RFU SAMD14 (11745864_x_at) / Fold change /veh SAMD14 (11745864_x_at) / RFU NPB (11741838_a_at) / Fold change /veh NPB (11741838_a_at) / RFU TMPRSS6 (11731388_a_at) / Fold change /veh TMPRSS6 (11731388_a_at) / RFU KRTAP10-2 (11738614_at) / Fold change /veh KRTAP10-2 (11738614_at) / RFU ARHGAP8 /// PRR5-ARHGAP8 (11727945_x_at) / Fold change /veh ARHGAP8 /// PRR5-ARHGAP8 (11727945_x_at) / RFU KRTAP5-7 /// NADSYN1 (11734609_at) / Fold change /veh KRTAP5-7 /// NADSYN1 (11734609_at) / RFU RASL12 (11751679_a_at) / Fold change /veh RASL12 (11751679_a_at) / RFU CDKN2B (11736163_a_at) / Fold change /veh CDKN2B (11736163_a_at) / RFU PRF1 (11729649_at) / Fold change /veh PRF1 (11729649_at) / RFU, ZNF638 /// ZNF638-IT1 / Fold change vs veh, ZNF638 /// ZNF638-IT1 / RFU, PANK3 / Fold change vs veh, PANK3 / RFU, SH3YL1 / Fold change vs veh, SH3YL1 / RFU, ZEB2 / Fold change vs veh, ZEB2 / RFU, NRIP1 / Fold change vs veh, NRIP1 / RFU, PTTG1IP / Fold change vs veh, PTTG1IP / RFU, CAPN2 / Fold change vs veh, CAPN2 / RFU, MED14 / Fold change vs veh, MED14 / RFU, SNORA58 / Fold change vs veh, SNORA58 / RFU, C1orf63 / Fold change vs veh, C1orf63 / RFU, LRRFIP1 / Fold change vs veh, LRRFIP1 / RFU, NDUFAF7 / Fold change vs veh, NDUFAF7 / RFU, SLC12A2 / Fold change vs veh, SLC12A2 / RFU, IBTK / Fold change vs veh, IBTK / RFU, ESF1 / Fold change vs veh, ESF1 / Fold change vs veh, TMEM50B / RFU, TAOK1 / Fold change vs veh, TAOK1 / RFU, ACBD3 / Fold change vs veh, ACBD3 / RFU, TMA16 / Fold change vs veh, TMA16 / RFU, RWDD3 / Fold change vs veh, RWDD3 / RFU, BCAT1 / Fold change vs veh, BCAT1 / RFU, EDEM3 / Fold change vs veh, EDEM3 / RFU, TMEM33 / Fold change vs veh, TMEM33 / RFU, WDR75 / Fold change vs veh, WDR75 / RFU, AHCTF1 / Fold change vs veh, AHCTF1 / RFU, TFRC / Fold change vs veh, TFRC / RFU, ZDHHC17 / Fold change vs veh, ZDHHC17 / RFU, NOM1 / Fold change vs veh, NOM1 / RFU, ARL8B / Fold change vs veh, ARL8B / RFU, ZBTB11 / Fold change vs veh, ZBTB11 / RFU, TAMM41 / Fold change vs veh, TAMM41 / RFU, KIAA1704 /// LOC100996395 / Fold change vs veh, KIAA1704 /// LOC100996395 / RFU, ING1 / Fold change vs veh, ING1 / RFU, TRMT61B / Fold change vs veh, TRMT61B / RFU, FUBP3 / Fold change vs veh, FUBP3 / RFU, TP53 / Fold change vs veh, TP53 / RFU, TNKS2 / Fold change vs veh, TNKS2 / RFU, ZFP14 / Fold change vs veh, ZFP14 / RFU, ACTR2 / Fold change vs veh, ACTR2 / RFU, PPP3R1 / Fold change vs veh, PPP3R1 / RFU, PIK3R1 / Fold change vs veh, PIK3R1 / RFU, HNRNPA1 / Fold change vs veh, HNRNPA1 / RFU, RNF170 / Fold change vs veh, RNF170 / RFU, ZNF28 / Fold change vs veh, ZNF28 / RFU, RNGTT / Fold change vs veh, RNGTT / RFU, OGT / Fold change vs veh, OGT / RFU, BRD1 / Fold change vs veh, BRD1 / RFU, MARS / Fold change vs veh, MARS / RFU, ZNF655 / Fold change vs veh, ZNF655 / RFU, FAHD1 / Fold change vs veh, FAHD1 / RFU, BDP1 / Fold change vs veh, BDP1 / RFU, LRRCC1 / Fold change vs veh, LRRCC1 / RFU, ARID1A / Fold change vs veh, ARID1A / RFU, ZNF146 / Fold change vs veh, ZNF146 / RFU, ZNF330 / Fold change vs veh, ZNF330 / RFU, GPN3 / Fold change vs veh, GPN3 / RFU, C9orf123 / Fold change vs veh, C9orf123 / RFU, N4BP2L2 / Fold change vs veh, N4BP2L2 / RFU, ARFIP1 / Fold change vs veh, ARFIP1 / RFU, FAM179B / Fold change vs veh, FAM179B / RFU, BCL10 / Fold change vs veh, BCL10 / RFU, UHRF1BP1L / Fold change vs veh, UHRF1BP1L / RFU, BET1 / Fold change vs veh, BET1 / RFU, CNOT2 / Fold change vs veh, CNOT2 / RFU, ZNF268 / Fold change vs veh, ZNF268 / Fold change vs veh, ZNF507 / RFU, DGCR2 / Fold change vs veh, DGCR2 / RFU, WDSUB1 / Fold change vs veh, WDSUB1 / Fold change vs veh, HSP90B1 /// MIR3652 / RFU, ADSS / Fold change vs veh, ADSS / RFU, GK / Fold change vs veh, GK / RFU, ZNF148 / Fold change vs veh, ZNF148 / RFU, TAF9 / Fold change vs veh, TAF9 / RFU, SLC1A5 / Fold change vs veh, SLC1A5 / RFU, SLMO2 / Fold change vs veh, SLMO2 / RFU, ABCC4 / Fold change vs veh, ABCC4 / RFU, LOC101060439 /// RAP1B / Fold change vs veh, LOC101060439 /// RAP1B / RFU, RFX7 / Fold change vs veh, RFX7 / RFU, GTPBP10 / Fold change vs veh, GTPBP10 / RFU, CNEP1R1 / Fold change vs veh, CNEP1R1 / RFU, BIVM-ERCC5 /// ERCC5 / Fold change vs veh, BIVM-ERCC5 /// ERCC5 / RFU, ILF3 / Fold change vs veh, ILF3 / RFU 11762660_at / Fold change /veh 11762660_at / RFU VCAN (11757783_s_at) / Fold change /veh VCAN (11757783_s_at) / RFU DDX43 (11728927_at) / Fold change /veh DDX43 (11728927_at) / RFU KRT8 (11758188_x_at) / Fold change /veh KRT8 (11758188_x_at) / RFU NKD1 (11759106_at) / Fold change /veh NKD1 (11759106_at) / RFU SRD5A1 (11742802_a_at) / Fold change /veh SRD5A1 (11742802_a_at) / RFU TPSAB1 /// TPSB2 (11721975_s_at) / Fold change /veh TPSAB1 /// TPSB2 (11721975_s_at) / RFU GSTM3 (11746129_a_at) / Fold change /veh GSTM3 (11746129_a_at) / RFU IL23R (11737362_x_at) / Fold change /veh IL23R (11737362_x_at) / RFU TMEM51 (11727254_a_at) / Fold change /veh TMEM51 (11727254_a_at) / RFU PIWIL2 (11732686_x_at) / Fold change /veh PIWIL2 (11732686_x_at) / RFU ORM1 (11744905_x_at) / Fold change /veh ORM1 (11744905_x_at) / RFU CCDC152 (11743942_at) / Fold change /veh CCDC152 (11743942_at) / RFU ECM1 (11717891_a_at) / Fold change /veh ECM1 (11717891_a_at) / RFU IL23R (11748794_a_at) / Fold change /veh IL23R (11748794_a_at) / RFU TNFAIP8L3 (11732012_x_at) / Fold change /veh TNFAIP8L3 (11732012_x_at) / RFU MBOAT4 (11741988_at) / Fold change /veh MBOAT4 (11741988_at) / RFU 11764193_at / Fold change /veh 11764193_at / RFU TMEM53 (11763286_at) / Fold change /veh TMEM53 (11763286_at) / RFU MAGEB2 (11727129_at) / Fold change /veh MAGEB2 (11727129_at) / RFU TMEM200A (11744735_a_at) / Fold change /veh TMEM200A (11744735_a_at) / RFU CCDC152 (11751479_a_at) / Fold change /veh CCDC152 (11751479_a_at) / RFU FAM211A (11726209_a_at) / Fold change /veh FAM211A (11726209_a_at) / RFU RGS16 (11746705_a_at) / Fold change /veh RGS16 (11746705_a_at) / RFU VCAN (11755009_s_at) / Fold change /veh VCAN (11755009_s_at) / RFU RHOB (11743442_s_at) / Fold change /veh RHOB (11743442_s_at) / RFU RGS16 (11720943_a_at) / Fold change /veh RGS16 (11720943_a_at) / RFU RGS16 (11720944_at) / Fold change /veh RGS16 (11720944_at) / RFU, VPS4B / Fold change vs veh, VPS4B / RFU, CREB1 / Fold change vs veh, CREB1 / RFU, DNAJC13 / Fold change vs veh, DNAJC13 / RFU, GNAQ / Fold change vs veh, GNAQ / RFU, CDK5R1 / Fold change vs veh, CDK5R1 / RFU, ZRANB3 / Fold change vs veh, ZRANB3 / RFU, CUL4A / Fold change vs veh, CUL4A / RFU, CCNY / Fold change vs veh, CCNY / RFU, UFL1 / Fold change vs veh, UFL1 / RFU, COG3 / Fold change vs veh, COG3 / RFU, DIAPH2 / Fold change vs veh, DIAPH2 / RFU, SKA2 / Fold change vs veh, SKA2 / RFU, AFF3 / Fold change vs veh, AFF3 / RFU, LMF1 / Fold change vs veh, LMF1 / RFU, IPO11 / Fold change vs veh, IPO11 / RFU, DFFB / Fold change vs veh, DFFB / RFU, FOXP1 / Fold change vs veh, FOXP1 / RFU, CARD8 / Fold change vs veh, CARD8 / RFU, STRN3 / Fold change vs veh, STRN3 / RFU, ADK / Fold change vs veh, ADK / RFU, RASSF2 / Fold change vs veh, RASSF2 / RFU, WIPF1 / Fold change vs veh, WIPF1 / RFU, LARP1B / Fold change vs veh, LARP1B / RFU, RASA1 / Fold change vs veh, RASA1 / RFU, RB1 / Fold change vs veh, RB1 / RFU, PPFIA1 / Fold change vs veh, PPFIA1 / RFU, MAT2A / Fold change vs veh, MAT2A / RFU, CCT5 / Fold change vs veh, CCT5 / RFU, WDR92 / Fold change vs veh, WDR92 / RFU, CUX1 / Fold change vs veh, CUX1 / RFU, TTC7A / Fold change vs veh, TTC7A / RFU, TMEM135 / Fold change vs veh, TMEM135 / RFU, DEPTOR / Fold change vs veh, DEPTOR / RFU, CPM / Fold change vs veh, CPM / RFU, DNAJB6 / Fold change vs veh, DNAJB6 / RFU, CACNA2D3 / Fold change vs veh, CACNA2D3 / RFU, DTX4 / Fold change vs veh, DTX4 / RFU, TFCP2 / Fold change vs veh, TFCP2 / RFU, GMCL1 /// GMCL1P1 / Fold change vs veh, GMCL1 /// GMCL1P1 / RFU, AEBP2 / Fold change vs veh, AEBP2 / RFU, SNHG1 /// SNORD22 /// SNORD25 /// SNORD26 /// SNORD27 /// SNORD28 /// SNORD29 /// SNORD31 / Fold change vs veh, SNHG1 /// SNORD22 /// SNORD25 /// SNORD26 /// SNORD27 /// SNORD28 /// SNORD29 /// SNORD31 / Fold change (Aza/veh), C12orf56 (ProbeSet 11735607_a_at) / Fold change (ACY-1035/veh), C12orf56 (ProbeSet 11735607_a_at) / Fold change (Aza/veh), FGFR1OP (ProbeSet 11751329_s_at) / Fold change (ACY-1035/veh), FGFR1OP (ProbeSet 11751329_s_at) / Fold change (Aza/veh), VPS36 (ProbeSet 11739960_a_at) / Fold change (ACY-1035/veh), VPS36 (ProbeSet 11739960_a_at) / RFU SYPL1 (11715823_x_at) / Fold change /veh SYPL1 (11715823_x_at) / RFU IGFBP7 (11715501_s_at) / Fold change /veh IGFBP7 (11715501_s_at) / RFU REEP3 (11722064_at) / Fold change /veh REEP3 (11722064_at) / RFU IGLL1 (11728026_x_at) / Fold change /veh IGLL1 (11728026_x_at): dose or concentration left out as unconfirmed
# Details: MV-4-11 cells, 48 hours
structure (smiles),measurement,value
Nc1ccc(-c2cccs2)cc1NC(=O)c1ccc2c(c1)cc(C1CC1)n2CCN1CCOCC1 [ACY-1035],RFU CCDC152 (11751479_a_at),4.13 RFU
